pEC50, pKi: −log10 of the molar value. Where two headings read alike, the source gives them in different places.
Legend:
[1] = molecular target: T1, first (BD1: amino acids K57-E168) bromodomain of BRD4 (Homo sapiens, UniProt O60885); assay: TR-FRET bromodomain binding assay, BRD4 BD1; settings: Ki calculated from IC50, probe Kd and probe concentration, read-out: TR-FRET Binding Ki: BRD4 (BDI_K57-E168)
T1 construct: His-tagged first (BD1: amino acids K57-E168)
Procedure, shortened: (§1)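 His-tagged BRD4 BD1 (K57-E168) or BD2 ([…]) displacing an Alexa647-labelled BET-inhibitor probe in 20 mM sodium phosphate pH 6.0, 50 mM NaCl, 1 mM EDTA, 0.01% Triton X-100, 1 mM DTT.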

[2] = molecular target: T2, second (BD2: amino acids E352-E168) bromodomain of BRD4 (Homo sapiens, UniProt O60885); assay: TR-FRET bromodomain binding assay, BRD4 BD2; settings: Ki calculated from IC50, probe Kd and probe concentration, read-out: TR-FRET Binding Ki: BRD4 (BDII_E352-M457)
T2 construct: protocol
Procedure, shortened: as §1

[3] = tested on: breast cancer cell line MX-1; assay: MX-1 cell line proliferation assay (3-day); assay type: cell-based; settings: Homo sapiens, MX1, MX-1 cells, Cell Titer Glo, read-out: Cellular proliferation: EC50
Procedure, shortened: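 MX-1 cells in RPMI/10% FBS, plated 5000/well overnight, then exposed to compound at final 3 to 0.0001 μM (3-fold series) for 3 days at 37° C. Cell Titer Glo luminescence normalized to DMSO-treated cells; EC50 from sigmoidal curve fit.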

[4] = tested on: LPS induced IL-6 production; assay: LPS (lipopolysaccharide) induced IL-6 production mouse assay; settings: 1 h before LPS 2.5 mg/kg i.p., serum IL-6 2 h after LPS, p<0.05
[5] = TR-FRET assay protocol (A-G, compound concentration range)
[6] = TR-FRET assay protocol (D, E or G) per compound

| pKi [1, 6] | pKi [2, 6] | pEC50 ([3]; 72 hours with compound) | SMILES | other results |
| --- | --- | --- | --- | --- |
| – | – | – | COc1cc(=O)n(C)nc1-c1cc(NS(C)(=O)=O)ccc1Oc1ccccc1 [Example 22, N-[3-(4-methoxy-1-methyl-6-oxo-1,6-dihydropyridazin-3-yl)-4-phenoxyphenyl]methanesulfonamide] | pKi [1, 5]: 6.59; pKi [2, 5]: 7.28; pEC50 ([3]; 72 h incubation): 6.14; Inhibition of LPS induced IL-6 production, % inhibition ([4]; 50 mg/kg oral): 53.9 @ 50 mg/kg % |
| – | – | – | Cn1cc(-c2cc(NS(C)(=O)=O)ccc2Oc2ccc(Cl)cc2)ccc1=O [Example 233, N-[4-(4-chlorophenoxy)-3-(1-methyl-6-oxo-1,6-dihydropyridin-3-yl)phenyl]methanesulfonamide] | pKi [1, 5]: 7.72; pKi [2, 5]: 6.96; pEC50 ([3]; 72 h incubation): 6.37; Inhibition of LPS induced IL-6 production, % inhibition ([4]; 30 mg/kg oral): 75.9 @ 30 mg/kg % |
| – | – | – | [2H]C([2H])(C)Oc1cc(=O)n(C)cc1-c1cc(NS(=O)(=O)CC)ccc1Oc1ccc(F)cc1F [Example 333, N-[4-(2,4-difluorophenoxy)-3-{4-[(1,1-^2H2)ethyloxy]-1-methyl-6-oxo-1,6-dihydropyridin-3-yl}phenyl]ethanesulfonamide] | Inhibition of LPS induced IL-6 production, % inhibition ([4]; 3 mg/kg oral): 63.6 @ 3 mg/kg % |
| 7.09 | 7.99 | 7.27 | CCOc1cc(=O)n(C)cc1-c1cc(NS(=O)(=O)CC)ccc1Oc1ccc(C(F)(F)F)cc1 [Example 386, N-{3-(4-ethoxy-1-methyl-6-oxo-1,6-dihydropyridin-3-yl)-4-[4-(trifluoromethyl)phenoxy]phenyl}ethanesulfonamide] | – |
| 7.44 | 7.87 | 7.10 | CCS(=O)(=O)Nc1ccc(Oc2ccc(F)cc2F)c(-c2cn(C)c(=O)cc2-c2cnn(Cc3ccccc3)c2)c1 [Example 390, N-{3-[4-(1-benzyl-1H-pyrazol-4-yl)-1-methyl-6-oxo-1,6-dihydropyridin-3-yl]-4-(2,4-difluorophenoxy)phenyl}ethanesulfonamide] | – |
| 8.04 | 8.34 | 7.24 | CCS(=O)(=O)Nc1ccc(Oc2ccc(F)cc2F)c(-c2cn(C)c(=O)cc2-c2cnn(CC(C)C)c2)c1 [Example 391, N-[4-(2,4-difluorophenoxy)-3-{1-methyl-4-[1-(2-methylpropyl)-1H-pyrazol-4-yl]-6-oxo-1,6-dihydropyridin-3-yl]phenyl}ethanesulfonamide] | – |
| 7.66 | 8.37 | 7.16 | CCS(=O)(=O)Nc1ccc(Oc2ccc(F)cc2F)c(-c2cn(C)c(=O)cc2-c2ccco2)c1 [Example 392, N-{4-(2,4-difluorophenoxy)-3-[4-(furan-2-yl)-1-methyl-6-oxo-1,6-dihydropyridin-3-yl]phenyl}ethanesulfonamide] | – |
| 7.92 | 8.60 | 7.15 | CCS(=O)(=O)Nc1ccc(Oc2ccc(F)cc2F)c(-c2cn(C)c(=O)cc2-c2ccoc2)c1 [Example 393, N-{4-(2,4-difluorophenoxy)-3-[4-(furan-3-yl)-1-methyl-6-oxo-1,6-dihydropyridin-3-yl]phenyl}ethanesulfonamide] | – |
| 6.98 | 6.66 | 6.32 | CCOc1cc(=O)n(C)cc1-c1cc(NS(=O)(=O)CC)ccc1O[C@H]1CC[C@H](NC(=O)OC(C)(C)C)CC1 [Example 395, tert-butyl(trans-4-{2-(4-ethoxy-1-methyl-6-oxo-1,6-dihydropyridin-3-yl)-4-[(ethylsulfonyl)amino]phenoxy}cyclohexyl)carbamate] | – |
| 8.02 | 8.50 | 7.81 | CCOc1cc(=O)n(C)cc1-c1cc(NS(=O)(=O)CC)ccc1Oc1ccc(F)cc1 [Example 396, N-[3-(4-ethoxy-1-methyl-6-oxo-1,6-dihydropyridin-3-yl)-4-(4-fluorophenoxy)phenyl]ethanesulfonamide] | – |
| 7.12 | 8.05 | 7.06 | CCOc1cc(=O)n(C)cc1-c1cc(S(=O)(=O)N2CCc3ccccc32)ccc1OCC1CC1 [Example 397, 5-[2-(cyclopropylmethoxy)-5-(2,3-dihydro-1H-indol-1-ylsulfonyl)phenyl]-4-ethoxy-1-methylpyridin-2(1H)-one] | – |
| 7.51 | 7.70 | < 5.52 | CCS(=O)(=O)Nc1ccc(Oc2ccc(F)cc2F)c(-c2cn(C)c(=O)cc2OCC2CCNCC2)c1 [Example 399, N-{4-(2,4-difluorophenoxy)-3-[1-methyl-6-oxo-4-(piperidin-4-ylmethoxy)-1,6-dihydropyridin-3-yl]phenyl}ethanesulfonamide] | – |
| 7.70 | 8.30 | 7.60 | CCOc1cc(=O)n(C)cc1-c1cc(NS(=O)(=O)CC)ccc1Oc1ccc(F)c(F)c1 [Example 401, N-[4-(3,4-difluorophenoxy)-3-(4-ethoxy-1-methyl-6-oxo-1,6-dihydropyridin-3-yl)phenyl]ethanesulfonamide] | – |
| 7.49 | 7.78 | 7.26 | CCOc1cc(=O)n(C)cc1-c1cc(NS(=O)(=O)CC)ccc1Oc1cc(F)c(F)c(F)c1 [Example 402, N-[3-(4-ethoxy-1-methyl-6-oxo-1,6-dihydropyridin-3-yl)-4-(3,4,5-trifluorophenoxy)phenyl]ethanesulfonamide] | – |
| 7.83 | 8.86 | 7.62 | CCOc1cc(=O)n(C)cc1-c1cc(NS(=O)(=O)CC)ccc1Oc1ccc(Cl)cc1F [Example 403, N-[4-(4-chloro-2-fluorophenoxy)-3-(4-ethoxy-1-methyl-6-oxo-1,6-dihydropyridin-3-yl)phenyl]ethanesulfonamide] | – |
| 7.93 | 8.84 | 7.61 | CCOc1cc(=O)n(C)cc1-c1cc(NS(=O)(=O)CC)ccc1Oc1c(F)cc(Cl)cc1F [Example 404, N-[4-(4-chloro-2,6-difluorophenoxy)-3-(4-ethoxy-1-methyl-6-oxo-1,6-dihydropyridin-3-yl)phenyl]ethanesulfonamide] | – |
| 7.44 | 8.30 | 7.30 | CCOc1cc(=O)n(C)cc1-c1cc(NS(=O)(=O)CC)ccc1Oc1cccnc1 [Example 405, N-[3-(4-ethoxy-1-methyl-6-oxo-1,6-dihydropyridin-3-yl)-4-(pyridin-3-yloxy)phenyl]ethanesulfonamide] | – |
| 8.16 | 8.69 | 7.14 | CCS(=O)(=O)Nc1ccc(Oc2ccc(F)cc2F)c(-c2cn(C)c(=O)cc2-c2ccc(C)s2)c1 [Example 407, N-{4-(2,4-difluorophenoxy)-3-[1-methyl-4-(5-methylthiophen-2-yl)-6-oxo-1,6-dihydropyridin-3-yl]phenyl}ethanesulfonamide] | – |
| 7.35 | 7.72 | 6.94 | CCOc1cc(=O)n(C)cc1-c1cc(NS(=O)(=O)CC)ccc1Oc1ccc(C#N)cc1F [Example 408, N-[4-(4-cyano-2-fluorophenoxy)-3-(4-ethoxy-1-methyl-6-oxo-1,6-dihydropyridin-3-yl)phenyl]ethanesulfonamide] | – |
| 7.21 | 7.33 | 6.60 | CCOc1cc(=O)n(C)cc1-c1cc(NC(=O)c2cncs2)ccc1Oc1ccc(F)cc1F [Example 411, N-[4-(2,4-difluorophenoxy)-3-(4-ethoxy-1-methyl-6-oxo-1,6-dihydropyridin-3-yl)phenyl]-1,3-thiazole-5-carboxamide] | – |
| 7.54 | 7.92 | 6.60 | CCOc1cc(=O)n(C)cc1-c1cc(NC(=O)c2cc(Cl)ccc2Cl)ccc1Oc1ccc(F)cc1F [Example 412, 2,5-dichloro-N-[4-(2,4-difluorophenoxy)-3-(4-ethoxy-1-methyl-6-oxo-1,6-dihydropyridin-3-yl)phenyl]benzamide] | – |
| 7.39 | 7.48 | 6.55 | CCOc1cc(=O)n(C)cc1-c1cc(NC(=O)c2ccccn2)ccc1Oc1ccc(F)cc1F [Example 415, N-[4-(2,4-difluorophenoxy)-3-(4-ethoxy-1-methyl-6-oxo-1,6-dihydropyridin-3-yl)phenyl]pyridine-2-carboxamide] | – |
| 7.60 | 8.55 | 6.00 | CCOc1cc(=O)n(C)cc1-c1cc(S(=O)(=O)N2CCc3ccccc32)ccc1Oc1ccc(F)cc1F [Example 419, 5-[2-(2,4-difluorophenoxy)-5-(2,3-dihydro-1H-indol-1-ylsulfonyl)phenyl]-4-ethoxy-1-methylpyridin-2(1H)-one] | – |
| < 6.62 | 7.66 | 6.08 | CCOc1cc(=O)n(C)cc1-c1cc(N(C)S(=O)(=O)Cc2ccccc2)ccc1Oc1ccc(F)cc1F [Example 420, N-[4-(2,4-difluorophenoxy)-3-(4-ethoxy-1-methyl-6-oxo-1,6-dihydropyridin-3-yl)phenyl]-N-methyl-1-phenylmethanesulfonamide] | – |

— US9561231B2 (AbbVie Inc., priority 2012, dated 2017)
